One block for each compound: values may come before it.
Legend:
Assay type in all cases: physicochemical
[1] = Dynamic Vapor Sorption (DVS) water sorption profile
Experimental: The water sorption profile of a compound of the invention is determined using a SMS Instruments Dynamic Vapor Sorption Analyzer (DVS) Model DVS-Advantage. Relative humidity (RH) and weight are calibrated using standards. The powder of the relevant compound of the invention is loaded and dried at 0% RH for 3 hours prior to starting the experiment. The RH is stepped from 0.1 to 94.4% in 11 steps. The specimen weight is considered constant at each step when percent mass change is less than 0.01% over a 5-minute interval with a minimum absolute equilibration time of 15 minutes and maximum equilibration time of 180 minutes.

[2] = Stability testing: storage at 60° C. and ambient RH for two weeks; settings: solid, ambient RH, 14 days
Experimental: Stability Testing 1. Storage at 60° C. and Ambient RH for Two Weeks.
Approximately 400 mg of the difumarate monohydrate salt was weighed into a scintillation vial and placed into an oven set to 60° C. The sample was tested for appearance, then diluted with ethanol to approximately 1 mg/mL and analyzed for related substances and optical enantiomer by HPLC.

[3] = Stability testing: storage at 60° C./80% RH for two weeks; settings: solid, 14 days
Experimental: 2. Storage at 60° C./80% RH and Ambient RH for Two Weeks.
A glass desiccation chamber was pre-equilibrated overnight with a saturated KBr solution to 79.3% RH within an […] oven. Approximately 400 mg of the difumarate monohydrate was weighed into a scintillation vial and placed into the chamber, which was then sealed to maintain the environment. Samples were tested for appearance, then diluted with ethanol to approximately 1 mg/mL and analyzed for related substances and optical enantiomer by HPLC.

[4] = Stability testing: storage at 80° C./80% RH for 4 days; settings: solid
Experimental: 3. Storage at 80° C./80% RH for 4 Days
A glass desiccation chamber was pre-equilibrated overnight with a saturated KBr solution to 79.3% RH within an 80° C. oven. Approximately 100 mg of the difumarate monohydrate salt was weighed into respective scintillation vials and these vials were placed into the chamber, which was then sealed to maintain the environment. The sample was tested on day 4 for appearance, then diluted with ethanol to approximately 1 mg/mL and analyzed by HPLC versus a control (time 0) sample.

- Change in Mass (%) - dry, Desorption ([1]; 0.6 % RH, 25° C. (Table 8)): 0.00%
- Change in Mass (%) - dry, Sorption ([1]; 0.6 % RH, 25° C. (Table 8)): 0.00%
- Change in Mass (%) - dry, Desorption ([1]; 10.1 % RH, 25° C.): 0.56%
- Change in Mass (%) - dry, Sorption ([1]; 10.1 % RH, 25° C.): 0.25%
- Change in Mass (%) - dry, Desorption ([1]; 19.4 % RH, 25° C.): 6.71%
- Change in Mass (%) - dry, Sorption ([1]; 19.4 % RH, 25° C.): 3.53%
- Change in Mass (%) - dry, Desorption ([1]; 29.0 % RH, 25° C.): 6.85%
- Change in Mass (%) - dry, Sorption ([1]; 29.0 % RH, 25° C.): 3.87%
- Change in Mass (%) - dry, Desorption ([1]; 37.8 % RH, 25° C.): 6.89%
- Change in Mass (%) - dry, Sorption ([1]; 37.8 % RH, 25° C.): 6.50%
- Change in Mass (%) - dry, Desorption ([1]; 47.7 % RH, 25° C.): 6.97%
- Change in Mass (%) - dry, Sorption ([1]; 47.7 % RH, 25° C.): 6.89%
- Change in Mass (%) - dry, Desorption ([1]; 56.4 % RH, 25° C.): 7.10%
- Change in Mass (%) - dry, Sorption ([1]; 56.4 % RH, 25° C.): 7.01%
- Change in Mass (%) - dry, Desorption ([1]; 65.7 % RH, 25° C.): 7.21%
- Change in Mass (%) - dry, Sorption ([1]; 65.7 % RH, 25° C.): 7.13%
- Change in Mass (%) - dry, Desorption ([1]; 75.3 % RH, 25° C.): 7.33%
- Change in Mass (%) - dry, Sorption ([1]; 75.3 % RH, 25° C.): 7.32%
- Change in Mass (%) - dry, Desorption ([1]; 84.8 % RH, 25° C.): 7.66%
- Change in Mass (%) - dry, Sorption ([1]; 84.8 % RH, 25° C.): 7.68%
- Change in Mass (%) - dry, Desorption ([1]; 92.0 % RH, 25° C.): 8.25%
- Change in Mass (%) - dry, Sorption ([1]; 92.0 % RH, 25° C.): 8.31%
Compound: CN1CCC[C@H]1CCNS(=O)(=O)c1ccc2c(c1)CN(CC1CCCCC1)CC2.O=C(O)/C=C/C(=O)O [hemifumarate dihydrate, 2-(cyclohexylmethyl)-N-{2-[(2S)-1-methylpyrrolidin-2-yl]ethyl}-1,2,3,4-tetrahydroisoquinoline-7-sulfonamide hemifumarate dihydrate]

- physical stability (physical form by XRPD and DSC-TGA) [2]: no observable change in physical form
- Change in Mass (%) - dry, Desorption ([1]; 0.6 % RH, 25° C.): 0.0%
- Change in Mass (%) - dry, Sorption ([1]; 0.6 % RH, 25° C.): 0.0%
- Change in Mass (%) - dry, Desorption ([1]; 10.2 % RH, 25° C.): 2.9%
- Change in Mass (%) - dry, Sorption ([1]; 10.2 % RH, 25° C.): 2.8%
- Change in Mass (%) - dry, Desorption ([1]; 19.6 % RH, 25° C.): 2.9%
- Change in Mass (%) - dry, Sorption ([1]; 19.6 % RH, 25° C.): 2.9%
- Change in Mass (%) - dry, Desorption ([1]; 29.4 % RH, 25° C.): 3.0%
- Change in Mass (%) - dry, Sorption ([1]; 29.4 % RH, 25° C.): 3.0%
- Change in Mass (%) - dry, Desorption ([1]; 38.5 % RH, 25° C.): 3.0%
- Change in Mass (%) - dry, Sorption ([1]; 38.5 % RH, 25° C.): 3.0%
- Change in Mass (%) - dry, Desorption ([1]; 48.5 % RH, 25° C.): 3.0%
- Change in Mass (%) - dry, Sorption ([1]; 48.5 % RH, 25° C.): 3.0%
- Change in Mass (%) - dry, Desorption ([1]; 57.5 % RH, 25° C.): 3.1%
- Change in Mass (%) - dry, Sorption ([1]; 57.5 % RH, 25° C.): 3.1%
- Change in Mass (%) - dry, Desorption ([1]; 67.1 % RH, 25° C.): 3.1%
- Change in Mass (%) - dry, Sorption ([1]; 67.1 % RH, 25° C.): 3.1%
- Change in Mass (%) - dry, Desorption ([1]; 77.0 % RH, 25° C.): 3.2%
- Change in Mass (%) - dry, Sorption ([1]; 77.0 % RH, 25° C.): 3.1%
- Change in Mass (%) - dry, Desorption ([1]; 87.0 % RH, 25° C.): 3.2%
- Change in Mass (%) - dry, Sorption ([1]; 87.0 % RH, 25° C.): 3.2%
- Change in Mass (%) - dry, Desorption ([1]; 94.2 % RH, 25° C.): 3.3%
- Change in Mass (%) - dry, Sorption ([1]; 94.2 % RH, 25° C.): 3.3%
- physical stability (physical form by XRPD and DSC-TGA) [3]: no observable change in physical form
Compound: CN1CCC[C@H]1CCNS(=O)(=O)c1ccc2c(c1)CN(CC1CCCCC1)CC2.O=C(O)/C=C/C(=O)O [difumarate monohydrate salt, 2-(cyclohexylmethyl)-N-{2-[(2S)-1-methylpyrrolidin-2-yl]ethyl}-1,2,3,4-tetrahydroisoquinoline-7-sulfonamide difumarate monohydrate]
- chemical stability (related substances and optical enantiomer by HPLC, appearance) [2]: stable in the solid state with a minimal increase in impurity levels and no observable change in appearance
- chemical stability (related substances and optical enantiomer by HPLC, appearance) [3]: stable in the solid state with a minimal increase in impurity levels and no observable change in appearance
- chemical stability (HPLC versus time 0 control, appearance) [4]: stable in the solid state with no observable chemical change
